Measured values published in patent US9364468B2, “Pharmaceutical composition for preventing or treating tuberculosis” (INDUSTRY-ACADEMIC COOPERATION FOUNDATION, YONSEI UNIVERSITY, priority 2012, dated 2016).

Assays:
[1] = system: Vero cell line (ATCC CCL-81); experiment: Cytotoxicity test, CellTiter 96 Non-Radioactive Cell Proliferation Assay, Vero cell line; assay type: cell-based; conditions: Chlorocebus sabaeus, 72 h, 3 days
[2] = system: carbon monoxide dehydrogenase (CO-DH); experiment: CO-DH activity assay (INT reduction in the presence of CO, enzyme extract); assay type: biochemical; conditions: 12.5 μM compound; relative to control group set to 100%
Protocol: In order to obtain an enzyme extract to be used for the measurement of CO-DH activity, the bacteria cultured according to respective experiment conditions were collected by centrifugation at 18,000×g for 10 minutes at 4° C. (Eppendorf centrifuge-5403, Hamburg, Germany), washed twice with a 50 mM Tris-HCl (pH 7.5) buffer solution, and re-suspended in […] of a 50 mM Tris-HCl (pH 7.5) buffer solution. The suspended bacteria were homogenized at 0° C. by repeating 20 times of ultrasonication using an ultrasonic processor (Sonics & Materials Inc., Danbury, Conn.) wherein the ultrasonication was conducted such that ultrasonic wave at 20% amplitude was applied for 3 seconds and paused for 10 seconds. The homogenized culture solution was collected by centrifugation at 18,000×g for 30 minutes at 4° C. (Eppendorf centrifuge-5403), and a supernatant was used as an enzyme extract.
Proteins were quantified using bovine serum albumin (BSA) as a standard protein according to the method of Bradford (1976).
CO-DH activity was determined by measuring the reduction rate of 2-(4-indophenyl)-3-(4-nitrophenyl)-2H-tetrazolium chloride (INT, Sigma, ε496=17.981 mM^−1 cm^−1) in the presence of CO. Here, 1-methoxyphenazine methosulfate (MPMS, Sigma) was used as an electron transfer mediator between CO-DH and INT. A mixture solution of 19.2 ml of 50 mM Tris-HCl (pH 7.5), 250 μl of INT (9.8 mM), 50 μl of MPMS (8.9 mM), and 500 μl of Triton X-100 (25%, v/v) was saturated with CO gas. 800 μl of the resultant solution was added into a plastic cuvette, and then each compound was added thereto to a final concentration of 12.5 μM. Last, 800 μl of the enzyme extract was added thereto, followed by reaction at 30° C. for 200 seconds. Here, the absorbance change is due to red formazan generated resulting from INT reduction, and was measured at 496 nm by using a spectrophotometer (U-2000, Hitachi) equipped with a temperature adjuster. Enzyme specific activity was expressed as nmoles of reduced INT per mg of protein per minute (nmol/mg protein/min). The enzyme specific activity of each compound treatment group was expressed as a percentage of the control group of which enzyme specific activity was set to 100%, and the results were summarized in Table 1.

[3] = system: marrow cell-derived macrophages; experiment: Cytotoxicity test, CellTiter 96 Non-Radioactive Cell Proliferation Assay, marrow cell-derived macrophages; assay type: cell-based; conditions: Mus musculus, Macrophage
Protocol: For preparation of mouse macrophages, the mouse femur was severed and then both ends thereof were cut. A 1-ml syringe was filled with the RPMI-1640 medium (Gibco), which was then used to isolate and take marrow cells in the femur. Blood cells were removed from the taken marrow cells by a low-osmotic buffer, and then the number of marrow cells was measured using a microscope. After appropriate dilution with the RPMI-1640 medium, the marrow cells were seeded in a 96-well microplate at 100,000 cells per well. After culturing in a CO2 incubator at 37° C. for 2 hours, cells other than the marrow cells were removed through exchange with a new RPMI-1640 medium. The medium was substituted with a culture supernatant of L929 cells, followed by culturing for 3 days. Again, the medium was substituted with a new culture supernatant of L929 cells, followed by culturing for 3 days.
Cytotoxicity was measured according to the method of Promega Inc., and 15 μl of a staining solution was applied to each well of the 96-well plate. The cells were incubated in a CO2 incubator at 37° C. for 4 hours, and then 100 μl of a quiescent solution was applied thereto. The absorbance of each well was measured at 570 nm using an absorbance measurement equipment from Molecular Devices. The absorbance values of wells not containing the compounds of Chemical Formulas 1 to 4 were compared with those of wells containing the compounds of Chemical Formulas 1 to 4 to determine the inhibition (%). The correlation between inhibition and concentration was calculated using the Prism software from Graphpad to determine IC50 (concentration at 50% inhibition) value. The marrow cell-derived macrophages were prepared by the method as described in Example 3 above.

[4] = system: Mycobacterium sp. strain JC1 wild type; experiment: CFU inhibition of JC1 wild type by compound alone; assay type: cell-based; conditions: read-out: Compound analog + JC 1 wild type (percentage (%) of CFU inhibition)

| Compound | IC50 [1] | Inhibition of CO-DH activity [2] | IC50 [3] | inhibition at 12.5 µM [4] | inhibition at 25 µM [4] | inhibition at 50 µM [4] |
| --- | --- | --- | --- | --- | --- | --- |
| COC(=O)c1ccccc1NC(=O)CSc1ccccn1 [Compound 3] | 109 µM | 15% | > 100 µM | 4% | 2% | 8% |
| COC(=O)c1ccc(Cl)cc1NC(=O)CCSc1ccccn1 [Compound 4] | 158 µM | 7% | > 100 µM | 2% | 4% | 16% |
| COC(=O)c1ccsc1NC(=O)CSc1ccncc1 [Compound 1] | 75.2 µM | 48% | > 100 µM | 0% | 2% | 6% |
| COC(=O)c1ccccc1NC(=O)CSc1ccc(Br)cc1 [Compound 2] | 36.4 µM | 18% | > 100 µM | 3% | 9% | 12% |
